# Measurements taken from ChEMBL document CHEMBL2434912, “Microwave accelerated synthesis of isoxazole hydrazide inhibitors of the system xc- transporter: Initial homology model” (Bioorg Med Chem Lett, 2013).
# Molecular target: T1, Cystine/glutamate transporter (Homo sapiens) (UniProt Q9UPY5)
# T1 sequence (whole entry): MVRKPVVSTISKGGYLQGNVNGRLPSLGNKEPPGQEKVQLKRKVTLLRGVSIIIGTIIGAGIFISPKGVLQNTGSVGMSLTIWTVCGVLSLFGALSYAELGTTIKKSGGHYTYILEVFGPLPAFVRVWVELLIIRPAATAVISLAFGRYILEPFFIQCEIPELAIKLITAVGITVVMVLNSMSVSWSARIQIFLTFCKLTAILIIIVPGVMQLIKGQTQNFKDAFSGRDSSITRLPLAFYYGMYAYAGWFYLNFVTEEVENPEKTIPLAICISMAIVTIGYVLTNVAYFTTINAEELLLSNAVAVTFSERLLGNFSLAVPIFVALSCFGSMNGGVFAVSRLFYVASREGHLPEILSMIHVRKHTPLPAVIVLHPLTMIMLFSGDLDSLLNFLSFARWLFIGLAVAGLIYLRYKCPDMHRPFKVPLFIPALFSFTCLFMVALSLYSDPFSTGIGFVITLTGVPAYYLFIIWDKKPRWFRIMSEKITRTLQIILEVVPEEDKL
# Assay: Inhibition of system xc-transporter-mediated [3H]-L-glutamate uptake in human SNB19 cells at 500 uM after 5 mins by liquid scintillation counting analysis relative to control
# Type: cell-based
# Settings: SNB-19
row,Structure (SMILES),inhibition [%]
1,C/C(=N\NC(=O)c1ccccc1)c1c(C(=O)O)noc1C,83
2,C/C(=N\NC(=O)c1ccccc1O)c1c(C(=O)O)noc1C,52
3,COc1ccc(C(=O)N/N=C(\C)c2c(C(=O)O)noc2C)cc1,68
4,C/C(=N\NC(=O)c1ccc(F)cc1F)c1c(C(=O)O)noc1C,58
5,C/C(=N\NC(=O)c1cccc2ccccc12)c1c(C(=O)O)noc1C,68
6,C/C(=N\NC(=O)c1cc(C(F)(F)F)cc(C(F)(F)F)c1)c1c(C(=O)O)noc1C,90
